From ChEMBL document CHEMBL5241052, “Dual-target kinase drug design: Current strategies and future directions in cancer therapy” (Eur J Med Chem, 2020)

Assays:
[1] = biological target: T1, Epidermal growth factor receptor (Homo sapiens, UniProt P00533); assay: Inhibition of human EGFR
[2] = biological target: Proto-oncogene tyrosine-protein kinase Src (Homo sapiens, UniProt P12931); assay: Inhibition of Src (unknown origin)
[3] = system: MDA-MB-231; assay: Antiproliferative activity against MDA-MB-231 cells (unknown origin); type: functional, cell-based; conditions: Homo sapiens
[4] = system: 4T1; assay: Antiproliferative activity against 4T1 cells (unknown origin); type: functional, cell-based; conditions: Mus musculus
[5] = system: MES-SA; assay: Antiproliferative activity against human MES-SA cells assessed as growth inhibition and measured after 96 hrs by micro plate reader analysis; type: functional, cell-based
[6] = system: DU-145; assay: Antiproliferative activity against human DU-145 cells assessed as growth inhibition and measured after 96 hrs by micro plate reader analysis; type: functional, cell-based; conditions: DU-145, 96 h
[7] = biological target: T1, Epidermal growth factor receptor; assay: Inhibition of human EGFR phosphorylation by invitro enzyme assay
[8] = biological target: Serine/threonine-protein kinase mTOR (Homo sapiens, UniProt P42345); assay: Inhibition of mTOR (unknown origin) by ELISA based kinase assay
[9] = Antiproliferative activity against human HTh7 cells harboring Ras mutation assessed as cell growth inhibition at 5 uM by cell counting assay; type: functional
[10] = system: TPC1; assay: Antiproliferative activity against human TPC1 cells harboring RET/PTC mutation assessed as cell growth inhibition at 5 uM by cell counting assay; type: functional
[11] = system: FTC-133; assay: Antiproliferative activity against human FTC-133 cells harboring PTEN mutation assessed as cell growth inhibition at 5 uM by cell counting assay; type: functional
[12] = Antiproliferative activity against human C643 cells harboring Ras mutation assessed as cell growth inhibition at 5 uM by cell counting assay; type: functional
[13] = Antiproliferative activity against human HTh104 cells harboring BRAF V600E mutation assessed as cell growth inhibition at 5 uM by cell counting assay; type: functional
[14] = biological target: Aurora kinase A (Homo sapiens, UniProt O14965); assay: Inhibition of AURA (unknown origin)
[15] = system: BCPAP; assay: Antiproliferative activity against human BCPAP cells harboring BRAF V600E mutation assessed as cell growth inhibition at 5 uM by cell counting assay; type: functional
[16] = system: SW-1736; assay: Antiproliferative activity against human SW-1736 cells harboring BRAF V600E mutation assessed as cell growth inhibition at 5 uM by cell counting assay; type: functional
[17] = system: COLO 205; assay: Antiproliferative activity against human COLO 205 cells at 10 uM by MTT assay; type: functional, cell-based
[18] = system: HCT-116; assay: Antiproliferative activity against human HCT-116 cells at 10 uM by MTT assay; type: functional, cell-based
[19] = system: A-375; assay: Antiproliferative activity against human A-375 cells at 10 uM by MTT assay; type: functional, cell-based
[20] = system: A549; assay: Antiproliferative activity against human A549 cells at 10 uM by MTT assay; type: functional, cell-based
[21] = biological target: Serine/threonine-protein kinase B-raf (Homo sapiens, UniProt P15056, V600E); assay: Inhibition of human BRAF V600E mutant
[22] = system: MCF7; assay: Antiproliferative activity against human MCF7 cells at 10 uM by MTT assay; type: functional, cell-based
[23] = system: LoVo; assay: Antiproliferative activity against human LoVo cells at 10 uM by MTT assay; type: functional, cell-based
[24] = biological target: Vascular endothelial growth factor receptor 2 (Homo sapiens, UniProt P35968); assay: Inhibition of VEGFR2 (unknown origin) by invitro kinase assay
[25] = biological target: Proto-oncogene tyrosine-protein kinase receptor Ret (Homo sapiens, UniProt P07949, V804M); assay: Inhibition of RET V804M mutant (unknown origin) by invitro kinase assay
[26] = biological target: Proto-oncogene tyrosine-protein kinase receptor Ret (Homo sapiens, UniProt P07949); assay: Inhibition of RET (unknown origin) by invitro kinase assay
Sequence of Proto-oncogene tyrosine-protein kinase receptor Ret (Homo sapiens, UniProt P07949) (P07949 whole entry): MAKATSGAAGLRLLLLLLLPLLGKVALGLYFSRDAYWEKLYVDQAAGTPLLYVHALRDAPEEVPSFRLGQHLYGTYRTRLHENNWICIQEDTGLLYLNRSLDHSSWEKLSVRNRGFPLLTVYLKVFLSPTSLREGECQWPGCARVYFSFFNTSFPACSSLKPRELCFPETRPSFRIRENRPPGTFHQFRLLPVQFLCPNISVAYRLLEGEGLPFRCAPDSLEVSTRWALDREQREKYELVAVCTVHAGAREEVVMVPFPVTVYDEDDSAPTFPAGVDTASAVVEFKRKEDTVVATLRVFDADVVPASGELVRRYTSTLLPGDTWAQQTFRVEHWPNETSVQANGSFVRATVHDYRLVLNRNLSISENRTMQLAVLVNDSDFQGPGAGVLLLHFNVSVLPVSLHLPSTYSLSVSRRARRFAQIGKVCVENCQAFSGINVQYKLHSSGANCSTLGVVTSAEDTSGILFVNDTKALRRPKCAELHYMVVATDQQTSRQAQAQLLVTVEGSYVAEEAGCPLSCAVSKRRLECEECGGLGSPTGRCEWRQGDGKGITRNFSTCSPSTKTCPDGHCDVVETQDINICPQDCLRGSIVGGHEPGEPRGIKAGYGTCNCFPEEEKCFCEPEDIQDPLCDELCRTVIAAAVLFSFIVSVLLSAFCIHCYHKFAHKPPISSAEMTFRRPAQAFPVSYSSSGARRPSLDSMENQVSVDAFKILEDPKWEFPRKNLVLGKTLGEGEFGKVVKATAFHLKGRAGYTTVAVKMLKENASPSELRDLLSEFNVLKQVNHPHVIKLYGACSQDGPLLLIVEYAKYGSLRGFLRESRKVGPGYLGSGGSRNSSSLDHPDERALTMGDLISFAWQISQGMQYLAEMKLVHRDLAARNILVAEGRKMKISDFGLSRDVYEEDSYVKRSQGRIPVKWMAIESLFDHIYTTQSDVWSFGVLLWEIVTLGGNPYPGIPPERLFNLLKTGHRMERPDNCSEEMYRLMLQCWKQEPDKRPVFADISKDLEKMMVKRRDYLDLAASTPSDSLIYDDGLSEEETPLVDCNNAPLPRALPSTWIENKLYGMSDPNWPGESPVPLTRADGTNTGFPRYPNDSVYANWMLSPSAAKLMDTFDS

T1 sequence (P00533 whole entry): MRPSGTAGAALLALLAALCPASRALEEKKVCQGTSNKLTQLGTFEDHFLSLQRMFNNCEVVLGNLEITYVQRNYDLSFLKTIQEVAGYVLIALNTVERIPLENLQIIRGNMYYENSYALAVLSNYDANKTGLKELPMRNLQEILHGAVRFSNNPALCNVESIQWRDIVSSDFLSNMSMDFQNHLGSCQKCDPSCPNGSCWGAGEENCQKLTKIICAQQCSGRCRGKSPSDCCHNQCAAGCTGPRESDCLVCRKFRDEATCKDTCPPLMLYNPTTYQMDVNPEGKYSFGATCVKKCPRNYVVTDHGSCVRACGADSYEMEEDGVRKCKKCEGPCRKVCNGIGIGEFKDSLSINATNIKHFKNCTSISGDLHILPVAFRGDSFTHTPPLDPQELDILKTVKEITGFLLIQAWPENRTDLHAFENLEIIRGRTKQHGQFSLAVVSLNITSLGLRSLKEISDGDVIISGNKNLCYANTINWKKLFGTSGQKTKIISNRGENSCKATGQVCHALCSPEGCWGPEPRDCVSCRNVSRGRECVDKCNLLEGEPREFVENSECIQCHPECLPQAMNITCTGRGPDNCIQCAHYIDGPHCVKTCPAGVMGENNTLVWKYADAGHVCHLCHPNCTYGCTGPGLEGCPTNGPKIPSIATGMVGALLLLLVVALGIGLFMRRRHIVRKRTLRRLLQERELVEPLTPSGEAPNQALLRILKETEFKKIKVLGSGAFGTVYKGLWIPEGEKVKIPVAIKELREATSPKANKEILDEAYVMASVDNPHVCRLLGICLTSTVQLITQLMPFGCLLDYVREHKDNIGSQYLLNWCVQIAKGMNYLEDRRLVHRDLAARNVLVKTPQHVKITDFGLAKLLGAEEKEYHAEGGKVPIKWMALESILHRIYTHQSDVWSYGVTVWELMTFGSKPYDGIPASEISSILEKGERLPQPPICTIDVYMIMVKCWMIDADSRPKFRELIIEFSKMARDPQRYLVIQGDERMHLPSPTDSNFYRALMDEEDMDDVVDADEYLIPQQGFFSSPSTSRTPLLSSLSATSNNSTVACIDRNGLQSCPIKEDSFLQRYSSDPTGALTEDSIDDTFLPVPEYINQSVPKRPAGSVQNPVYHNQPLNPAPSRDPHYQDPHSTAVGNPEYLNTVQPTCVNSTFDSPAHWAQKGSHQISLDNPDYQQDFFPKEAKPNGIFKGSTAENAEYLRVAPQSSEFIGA
Sequence of Proto-oncogene tyrosine-protein kinase Src (P12931 2-536 limits assumed): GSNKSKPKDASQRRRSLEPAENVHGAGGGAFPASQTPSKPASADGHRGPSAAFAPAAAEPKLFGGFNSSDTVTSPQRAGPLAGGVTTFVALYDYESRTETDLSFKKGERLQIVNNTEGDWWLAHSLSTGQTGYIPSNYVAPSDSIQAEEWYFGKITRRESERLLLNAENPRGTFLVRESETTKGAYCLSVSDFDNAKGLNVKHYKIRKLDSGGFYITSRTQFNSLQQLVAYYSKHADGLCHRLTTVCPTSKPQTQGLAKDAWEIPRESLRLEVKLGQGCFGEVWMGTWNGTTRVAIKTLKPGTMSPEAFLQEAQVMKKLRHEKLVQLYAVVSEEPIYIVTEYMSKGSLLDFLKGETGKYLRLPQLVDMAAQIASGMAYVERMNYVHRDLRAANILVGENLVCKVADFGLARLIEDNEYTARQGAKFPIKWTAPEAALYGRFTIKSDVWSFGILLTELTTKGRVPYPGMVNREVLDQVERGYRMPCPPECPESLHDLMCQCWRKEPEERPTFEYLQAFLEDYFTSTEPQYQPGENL
Sequence of Proto-oncogene tyrosine-protein kinase receptor Ret (Homo sapiens, UniProt P07949, V804M) (P07949 29-1114 V804M limits assumed): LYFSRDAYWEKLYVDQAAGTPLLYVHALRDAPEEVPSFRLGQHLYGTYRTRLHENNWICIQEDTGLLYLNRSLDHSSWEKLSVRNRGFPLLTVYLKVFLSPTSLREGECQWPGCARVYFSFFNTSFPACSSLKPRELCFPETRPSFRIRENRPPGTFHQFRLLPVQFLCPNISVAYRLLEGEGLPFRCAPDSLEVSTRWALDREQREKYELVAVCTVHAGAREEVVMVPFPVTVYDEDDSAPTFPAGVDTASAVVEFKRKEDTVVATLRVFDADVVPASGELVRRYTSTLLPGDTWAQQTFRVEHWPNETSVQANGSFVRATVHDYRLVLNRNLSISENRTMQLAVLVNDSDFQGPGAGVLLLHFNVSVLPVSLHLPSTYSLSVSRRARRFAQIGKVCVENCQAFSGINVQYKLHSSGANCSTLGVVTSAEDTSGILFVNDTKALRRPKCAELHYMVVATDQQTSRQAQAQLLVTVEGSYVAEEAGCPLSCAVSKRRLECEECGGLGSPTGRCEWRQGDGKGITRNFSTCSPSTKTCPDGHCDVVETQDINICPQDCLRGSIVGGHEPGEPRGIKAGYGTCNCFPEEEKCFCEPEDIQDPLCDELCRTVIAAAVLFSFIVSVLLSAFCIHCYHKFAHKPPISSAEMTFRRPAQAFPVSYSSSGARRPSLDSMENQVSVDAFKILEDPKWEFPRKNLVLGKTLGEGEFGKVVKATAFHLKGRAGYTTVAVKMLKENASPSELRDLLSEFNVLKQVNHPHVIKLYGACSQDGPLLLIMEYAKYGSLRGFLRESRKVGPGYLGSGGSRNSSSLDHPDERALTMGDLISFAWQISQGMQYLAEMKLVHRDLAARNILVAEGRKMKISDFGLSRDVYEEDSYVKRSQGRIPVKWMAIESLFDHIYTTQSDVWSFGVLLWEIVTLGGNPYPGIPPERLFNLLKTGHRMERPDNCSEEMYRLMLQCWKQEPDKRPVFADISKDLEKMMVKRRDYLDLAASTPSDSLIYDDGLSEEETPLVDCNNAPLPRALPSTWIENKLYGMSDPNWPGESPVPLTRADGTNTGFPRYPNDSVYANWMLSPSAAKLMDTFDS
Sequence of Serine/threonine-protein kinase B-raf (P15056 2-766 V600E limits assumed): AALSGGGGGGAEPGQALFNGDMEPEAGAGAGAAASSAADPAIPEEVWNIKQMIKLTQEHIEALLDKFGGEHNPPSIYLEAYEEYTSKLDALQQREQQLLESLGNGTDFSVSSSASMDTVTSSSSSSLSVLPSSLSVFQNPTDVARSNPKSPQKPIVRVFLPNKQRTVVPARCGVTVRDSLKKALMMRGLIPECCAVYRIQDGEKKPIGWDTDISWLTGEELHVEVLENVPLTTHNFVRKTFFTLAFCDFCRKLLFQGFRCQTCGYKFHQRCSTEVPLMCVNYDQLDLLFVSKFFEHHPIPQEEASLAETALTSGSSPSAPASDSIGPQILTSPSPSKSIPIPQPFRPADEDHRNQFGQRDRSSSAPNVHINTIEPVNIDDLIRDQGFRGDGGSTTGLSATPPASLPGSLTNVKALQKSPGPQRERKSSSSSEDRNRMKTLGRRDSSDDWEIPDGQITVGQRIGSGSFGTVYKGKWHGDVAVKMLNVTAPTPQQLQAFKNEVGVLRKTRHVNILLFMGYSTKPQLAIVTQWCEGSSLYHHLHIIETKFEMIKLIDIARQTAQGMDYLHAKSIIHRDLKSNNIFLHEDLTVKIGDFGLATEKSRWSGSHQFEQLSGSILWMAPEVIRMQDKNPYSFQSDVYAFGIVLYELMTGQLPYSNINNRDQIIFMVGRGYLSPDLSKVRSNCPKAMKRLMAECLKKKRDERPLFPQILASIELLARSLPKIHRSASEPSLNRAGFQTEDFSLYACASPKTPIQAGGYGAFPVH

SMILES: CN(CCOC(=O)c1ccc(C(=O)Nc2ncnc3c2c(-c2ccc(Cl)cc2)nn3C(C)(C)C)nc1)Cc1ccc(C(=O)Nc2ccc3ncnc(Nc4cccc(Cl)c4)c3c2)cc1
- IC50 [1]: 610 nM
- IC50 [2]: 1100 nM
- IC50 [3]: 7340 nM
- IC50 [4]: 5600 nM

SMILES: COc1cccc(-c2cc(=O)c3ccccc3o2)c1NC(=O)OCCOC(=O)NCCN(C)CCN/N=N/c1ccc2c(Nc3cccc(Cl)c3)ncnc2c1
- IC50 [5]: 24500 nM
- IC50 [6]: 11300 nM
- IC50 [7]: 102 nM

SMILES: Cc1cc(S(=O)(=O)Nc2ccc(/C=C3\SC(=O)N(CC4(C)CCCCC4)C3=O)cc2)ccc1[N+](=O)[O-]
- IC50 [8]: 8230 nM
- GI50 [9]: 1360 nM
- GI50 [10]: 7260 nM
- GI50 [11]: 5900 nM
- GI50 [12]: 4510 nM
- GI50 [13]: 3370 nM
- IC50 [14]: 35 nM
- GI50 [15]: 3790 nM
- GI50 [16]: 4210 nM

SMILES: CN(c1nc(-c2cnc(N)nc2)nc(N2CCOCC2)n1)C1CCN(C(=O)c2ccccc2)CC1
- IC50 [17]: 90 nM
- IC50 [18]: 110 nM
- IC50 [19]: 100 nM
- IC50 [20]: 90 nM
- IC50 [21]: 118 nM
- IC50 [22]: 500 nM
- IC50 [23]: 80 nM

SMILES: O=C(Cc1ccc(-n2cnc3cc(-c4ccsc4)ccc32)cc1)Nc1cccc(C(F)(F)F)c1
- IC50 [24]: < 1 nM
- IC50 [25]: < 1 nM
- IC50 [26]: < 1 nM
